Here are results for four molecules from patent publication US20090209460A1, “COMPOSITIONS AND METHODS FOR TREATING OBESITY AND RELATED METABOLIC DISORDERS” (Amylin Pharmaceuticals, Inc., priority 2005, published 2009).

One data set concerns NIH/Swiss mice. In words: acute food intake assay, lean overnight-fasted NIH/Swiss mice, intraperitoneal injection. Type of data set: in vivo, mouse. The procedure: The effect of NMX Peptides, FNX Peptides or NMX Receptor agonists on food intake when systemically administered was investigated using an acute food intake assay. This assay measured food consumption in lean subjects. Lean, group-housed, overnight-fasted NIH/Swiss mice. All in vivo tests were performed with peripheral injections of peptide. […] The dose-response data are presented herein. The protocol is described below. Female NIH/Swiss mice (8-24 weeks old) were group housed with a 12:12 hour light:dark cycle, with lights on at 0300. Water and a standard pelleted mouse chow diet are available ad libitum, except as noted. Animals are fasted starting at approximately 1530 hrs, 1 day prior to experiment. At time=0 min, all animals are given an intraperitoneal injection of vehicle or polypeptide in a volume of 200 uL/mouse and immediately given a pre-weighed amount (10-15 g) of the standard chow. Food is removed and weighed at 30, 60, and 120 minutes to determine the amount of food consumed. The effects of treatment on food intake are expressed as % change relative to control.

Data set [1] is described as follows: brush border membrane (BBM) stability assay. Type of data set: in vitro ADME, human. To be noted: brush border membrane extract (e.g. kidney); percent compound remaining after a 5 hour incubation, human brush border membrane assay; read-out: hBBM. The procedure:
Some exemplary NMX Peptides and FNX Peptides were tested for stability in a brush border membrane (BBM) assay as described herein. To determine the enzymatic stability of peptide hormones peptides are incubated with a preparation of human brush border membranes extract (e.g., kidney), and the stability of the peptide is determined by measuring concentration of the intact peptide at specific intervals. The brush border membrane extract contains dipeptidyl peptidase IV (DPP-IV), neutral endopeptidases, peptidyl-dipeptidase A, carboxypeptidases and aminopeptidases. These are the primary enzymes that degrade peptides in vivo and are found in the kidneys, liver, lungs and pancreas. Resistance against these human proteases would increase peptide half-life. In the BBM assay test peptide was subjected to digestion over a period of five (5) hours with human brush border membrane extracts, e.g. kidney, at 37° C. At desired timepoints digestion was stopped by addition of quench solution, typically 50% ACN, 1% FA. After centrifugation to remove membrane debris, supernatant was subjected to mass spectrometry using a selected ion scan for the intact molecule of interest. Values are expressed as a percent of stable. A value of at least 80 or greater is regarded as an extremely stable molecule. A value of at least 70 or greater is a molecule with significant stability.

Residues, ends and D or L forms follow the SMILES beside them.

Consider `CC(C)C[C@H](NC(=O)[C@H](CCCCN)NC(=O)[C@H](CCC(N)=O)NC(=O)[C@@H](NC(=O)[C@H](CCCCN)NC(=O)[C@H](CO)NC(=O)[C@@H](N)Cc1ccc(O)cc1)[C@@H](C)O)C(=O)NCC(=O)N[C@@H](CCCCN)C(=O)N[C@@H](CO)C(=O)N[C@@H](CC(N)=O)C(=O)N[C@@H](CCC(=O)O)C(=O)N[C@@H](CCC(=O)O)C(=O)N[C@@H](CC(C)C)C(=O)N[C@@H](CCC(N)=O)C(=O)N[C@@H](CO)C(=O)N1CCC[C@H]1C(=O)N[C@@H](CO)C(=O)N[C@@H](CCCNC(=N)N)C(=O)NCC(=O)N[C@@H](Cc1ccc(O)cc1)C(=O)N[C@@H](Cc1ccccc1)C(=O)N[C@@H](CC(C)C)C(=O)N[C@@H](Cc1ccccc1)C(=O)N[C@@H](CCCNC(=N)N)C(=O)N1CCC[C@H]1C(=O)N[C@@H](CCCNC(=N)N)C(=O)N[C@@H](CC(N)=O)C(N)=O` (H-YSKTQKLGKSNEELQSPSRGYFLFRPRN-NH2; N-terminus assumed), for which the “Food Intake Inhibition” value in the data set with NIH/Swiss mice (mouse assay, dose of 200 mg/kg, measured at 60 minutes) is reported as −69%. In addition, the remaining at 5 h in data set [1] stood at 67%.
As to `CC(C)C[C@H](NC(=O)[C@H](CCCCN)NC(=O)[C@H](CCC(N)=O)NC(=O)[C@@H](NC(=O)[C@H](CCCCN)NC(=O)[C@H](CO)NC(=O)[C@H](Cc1ccc(O)cc1)NC(=O)[C@H](Cc1c[nH]cn1)NC(=O)[C@H](Cc1ccccc1)NC(=O)[C@H](CC(C)C)NC(=O)[C@@H](N)Cc1ccccc1)[C@@H](C)O)C(=O)NCC(=O)N[C@@H](CCCCN)C(=O)N[C@@H](CO)C(=O)N[C@@H](CC(N)=O)C(=O)N[C@H](C(=O)N[C@H](C(=O)N[C@@H](CCC(=O)O)C(=O)N[C@@H](CCC(=O)O)C(=O)N[C@@H](CC(C)C)C(=O)N[C@@H](CCC(N)=O)C(=O)N[C@@H](CO)C(=O)N1CCC[C@H]1C(=O)N[C@@H](Cc1ccccc1)C(=O)N[C@@H](C)C(=O)N[C@@H](CO)C(=O)N[C@@H](CCC(N)=O)C(=O)N[C@@H](CO)C(=O)N[C@@H](CCCNC(=N)N)C(=O)NCC(=O)N[C@@H](Cc1ccc(O)cc1)C(=O)N[C@@H](Cc1ccccc1)C(=O)N[C@H](C(=O)N[C@@H](Cc1ccccc1)C(=O)N[C@@H](CCCNC(=N)N)C(=O)N1CCC[C@H]1C(=O)N[C@@H](CCCNC(=N)N)C(=O)N[C@@H](CC(N)=O)C(N)=O)C(C)C)C(C)C)C(C)C` [[Val33]FN38] (H-FLFHYSKTQKLGKSNVVEELQSPFASQSRGYFVFRPRN-NH2; N-terminus and C-terminus assumed), the remaining at 5 h in data set [1] worked out at 82%.
Take `CC(C)C[C@H](NC(=O)[C@H](Cc1ccccc1)NC(=O)[C@H](Cc1ccc(O)cc1)NC(=O)CNC(=O)[C@H](CO)NC(=O)[C@H](Cc1ccc(O)cc1)NC(=O)[C@H](Cc1c[nH]cn1)NC(=O)[C@H](Cc1ccccc1)NC(=O)[C@H](CC(C)C)NC(=O)[C@@H](N)Cc1ccccc1)C(=O)N[C@@H](Cc1ccccc1)C(=O)N[C@@H](CCCNC(=N)N)C(=O)N1CCC[C@H]1C(=O)N[C@@H](CCCNC(=N)N)C(=O)N[C@@H](CC(N)=O)C(N)=O` [Des-(Lys7-Gly30)FN38 or FN15] (H-FLFHYSGYFLFRPRN-NH2; N-terminus and C-terminus assumed): the remaining at 5 h in data set [1] turned out to be 49%.
For the molecule `CC(C)C[C@H](NC(=O)[C@H](Cc1ccccc1)NC(=O)[C@H](Cc1ccc(O)cc1)NC(=O)CN)C(=O)N[C@@H](Cc1ccccc1)C(=O)N[C@@H](CCCNC(=N)N)C(=O)N1CCC[C@H]1C(=O)N[C@@H](CCCNC(=N)N)C(=O)N[C@@H](CC(N)=O)C(N)=O` [Compound 163357, reference compound] (H-GYFLFRPRN-NH2; N-terminus assumed), the “activity in food intake assays” value in the data set with NIH/Swiss mice (doses up to 170 nmol/kg) is “inactive”. In the data set with NIH/Swiss mice (food intake, % change relative to control, 60 min, dose 200), the “FI (60′, 200)” value came out at 26%.
